Assay results as given in US20240383856A1 (Zedira GmbH, priority 2021, published 2024).
pIC50: −log10 of the molar value.

Tests used:
[1] = Caco-2 permeability assay (CacoReady kit); format: in vitro ADME; settings: human, Caco-2, Caco-2 barrier, CacoReady kit; above 1×10^−6 cm/s classified as permeable
Summary of the method: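 Papp values come from Caco-2 barrier studies intended to predict oral bioavailability; the manufacturer's procedure for the ready-made kit was followed.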

[2] = logD by shake flask method (octanol / PBS pH 7.4, HPLC); format: physicochemical; settings: octanol / PBS pH 7.4, shake flask
Summary of the method: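 Shake-flask partition of compound between octanol and phosphate-buffered saline at pH 7.4, with each phase quantified by HPLC to give LogD.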

[3] = target: T1, recombinant human transglutaminase 2 (Homo sapiens, UniProt P21980); experiment: Transglutaminase assay (DCC-assay): incorporation of dansylcadaverine into dimethylcasein; format: biochemical; settings: recombinant human TG2 10 nM; dansylcadaverine incorporation into dimethylcasein; read-out: IC50 TG2
T1 construct: purchased Zedira T022
T1 sequence (P21980 1-687): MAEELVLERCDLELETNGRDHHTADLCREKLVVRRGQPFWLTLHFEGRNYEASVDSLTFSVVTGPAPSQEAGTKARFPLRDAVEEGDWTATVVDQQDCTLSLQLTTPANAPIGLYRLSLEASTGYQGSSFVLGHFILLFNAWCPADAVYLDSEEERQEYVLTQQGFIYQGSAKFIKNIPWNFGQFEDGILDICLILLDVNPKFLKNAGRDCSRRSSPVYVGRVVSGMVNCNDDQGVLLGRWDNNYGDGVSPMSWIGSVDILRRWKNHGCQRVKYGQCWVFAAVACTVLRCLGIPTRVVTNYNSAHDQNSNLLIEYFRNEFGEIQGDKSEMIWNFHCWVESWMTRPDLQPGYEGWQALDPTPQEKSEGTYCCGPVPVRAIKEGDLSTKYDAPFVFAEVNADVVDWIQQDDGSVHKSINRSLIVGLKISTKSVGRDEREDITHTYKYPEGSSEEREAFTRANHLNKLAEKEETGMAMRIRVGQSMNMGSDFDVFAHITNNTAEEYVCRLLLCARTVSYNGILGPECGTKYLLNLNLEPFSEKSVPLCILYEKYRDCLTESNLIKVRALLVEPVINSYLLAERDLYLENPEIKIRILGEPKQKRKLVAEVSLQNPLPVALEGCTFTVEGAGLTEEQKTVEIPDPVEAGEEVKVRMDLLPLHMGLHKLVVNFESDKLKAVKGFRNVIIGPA
Summary of the method: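 Recombinant human TG2 (10 nM final) incorporates dansylcadaverine into N,N-dimethylcasein. Reaction mix: 50 mM Tris-HCl, 10 mM CaCl2, 10 mM glutathione, 2.5% glycerol, 16.7 µM dansylcadaverine, 4 µM dimethylcasein, 200 mM NaCl, pH 8.0. Fluorescence (ex 330/em 500 nm) was followed 30 min at 37 °C; the 20–30 min slope, expressed as % of 2% DMSO control, gave IC50.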

| SMILES | Papp [1] [×10⁻⁶ cm/s] | logD [2] | pIC50 [3] |
| --- | --- | --- | --- |
| CNC(=O)C(=O)CC[C@H](NC(=O)c1cc2ccccc2[nH]1)C(=O)Nc1cccn(CC(=O)NC2C3CC4CC(C3)CC2C4)c1=O (stereo partly drawn) [II-9, (S)-2-(1H-indole-2-carboxamido)-N1-(1-(2-(2-adamantylamino)-2-oxoethyl)-2-oxo-1,2-dihydropyridin-3-yl)-N6-methyl-5-oxohexanediamide] | 1 to 10 | 1 to 3 | > 7.40 |
| CNC(=O)C(=O)CC[C@H](NC(=O)c1cn[nH]n1)C(=O)Nc1cccn(CC(=O)NC2C3CC4CC(C3)CC2C4)c1=O (stereo partly drawn) [II-131, (S)-N1-(1-(2-(2-adamantylamino)-2-oxoethyl)-2-oxo-1,2-dihydropyridin-3-yl)-N6-methyl-5-oxo-2-(2H-1,2,3-triazole-4-carboxamido) hexanediamide] | < 1 | < 1 | 6.40 to 7.40 |
| CNC(=O)C(=O)CC[C@H](NC(=O)c1csc(Br)c1)C(=O)Nc1cccn(CC(=O)NC2C3CC4CC(C3)CC2C4)c1=O (stereo partly drawn) [II-30, (S)-2-(5-bromothiophene-3-carboxamido)-N1-(1-(2-(2-adamantylamino)-2-oxoethyl)-2-oxo-1,2-dihydropyridin-3-yl)-N6-methyl-5-oxohexanediamide] | 1 to 10 | 3 to 5 | > 7.40 |
| CNC(=O)C(=O)CC[C@H](NC(=O)c1c(C)nc2sccn12)C(=O)Nc1cccn(CC(=O)NC2C3CC4CC(C3)CC2C4)c1=O (stereo partly drawn) [II-66, (S)-N1-(1-(2-(2-adamantylamino)-2-oxoethyl)-2-oxo-1,2-dihydropyridin-3-yl)-N6-methyl-2-(6-methylimidazo[2,1-b]thiazole-5-carboxamido)-5-oxohexanediamide] | < 1 | 1 to 3 | 5.60 to 6.40 |
| CNC(=O)C(=O)CC[C@H](NC(=O)c1cnccn1)C(=O)Nc1cccn(CC(=O)NC2C3CC4CC(C3)CC2C4)c1=O (stereo partly drawn) [II-53, (S)-N1-(1-(2-(2-adamantylamino)-2-oxoethyl)-2-oxo-1,2-dihydropyridin-3-yl)-N6-methyl-5-oxo-2-(pyrazine-2-carboxamido)hexanediamide] | < 1 | 1 to 3 | 6.40 to 7.40 |
| CNC(=O)C(=O)CC[C@H](NC(=O)c1ccc2occc2c1)C(=O)Nc1cccn(CC(=O)NC2C3CC4CC2CC(NC(C)=O)(C4)C3)c1=O (stereo partly drawn) [II-194, (S)-2-(benzofuran-5-carboxamido)-N1-(1-(2-(1-acetylamino-4-aminoadamantane)-2-oxoethyl)-2-oxo-1,2-dihydropyridin-3-yl)-N6-methyl-5-oxohexanediamide] | < 1 | < 1 | 6.40 to 7.40 |
| CNC(=O)C(=O)CC[C@H](NC(=O)c1c[nH]c(C(N)=O)c1)C(=O)Nc1cccn(CC(=O)NC23CC(C2)C3)c1=O [II-192, (S)-N4-(1-(1-(2-(bicyclo[1.1.1]pentan-1-ylamino)-2-oxoethyl)-2-oxo-1,2-dihydropyridin-3-ylamino)-6-(methylamino)-1,5,6-trioxohexan-2-yl)-1H-pyrrole-2,4-dicarboxamide] | < 1 | < 1 | 5.60 to 6.40 |
| O=C(Cn1cccc(NC(=O)[C@H](CCC(=O)C(=O)NC2CC2)NC(=O)c2cc3ccccc3o2)c1=O)NC1C2CC3CC(C2)CC1C3 (stereo partly drawn) [II-121, (S)-2-(benzofuran-2-carboxamido)-N6-cyclopropyl-N1-(1-(2-(2-adamantylamino)-2-oxoethyl)-2-oxo-1,2-dihydropyridin-3-yl)-5-oxohexanediamide] | 1 to 10 | 3 to 5 | 6.40 to 7.40 |
| Cc1c(C(=O)N[C@@H](CCC(=O)C(N)=O)C(=O)Nc2cccn(CC(=O)N[C@@H]3C[C@H]4CC[C@@H]3C4)c2=O)oc2ccccc12 [II-147, (S)-N1-(1-(2-((1R,2R,4S)-bicyclo[2.2.1]heptan-2-ylamino)-2-oxoethyl)-2-oxo-1,2-dihydropyridin-3-yl)-2-(3-methylbenzofuran-2-carboxamido)-5-oxohexanediamide] | 1 to 10 | < 1 | > 7.40 |
| CNC(=O)C(=O)CC[C@H](NC(=O)[C@H]1CCNC1)C(=O)Nc1cccn(CC(=O)NC2C3CC4CC(C3)CC2C4)c1=O (stereo partly drawn) [II-55, (S)-N1-(1-(2-(2-adamantylamino)-2-oxoethyl)-2-oxo-1,2-dihydropyridin-3-yl)-N6-methyl-5-oxo-2-((S)-pyrrolidine-3-carboxamido)hexanediamide] | < 1 | < 1 | 6.40 to 7.40 |
| CNC(=O)C(=O)CC[C@H](NC(=O)c1ccnn1C)C(=O)Nc1cccn(CC(=O)N[C@@H]2C[C@H]3CC[C@@H]2C3)c1=O [II-153, (S)-N1-(1-(2-((1R,2R,4S)-bicyclo[2.2.1]heptan-2-ylamino)-2-oxoethyl)-2-oxo-1,2-dihydropyridin-3-yl)-N6-methyl-2-(1-methyl-1H-pyrazole-5-carboxamido)-5-oxohexanediamide] | < 1 | < 1 | 5.60 to 6.40 |
| CNC(=O)C(=O)CC[C@H](NC(=O)c1c(I)cnn1C)C(=O)Nc1cccn(CC(=O)NC2C3CC4CC(C3)CC2C4)c1=O (stereo partly drawn) [II-143, (S)-2-(4-iodo-1-methyl-1H-pyrazole-5-carboxamido)-N1-(1-(2-(2-adamantylamino)-2-oxoethyl)-2-oxo-1,2-dihydropyridin-3-yl)-N6-methyl-5-oxohexanediamide] | < 1 | < 1 | 5.60 to 6.40 |
| CNC(=O)C(=O)CC[C@H](NC(=O)c1cc2c(Br)cccc2o1)C(=O)Nc1cccn(CC(=O)NC2C3CC4CC(C3)CC2C4)c1=O (stereo partly drawn) [II-5, (S)-2-(4-bromobenzofuran-2-carboxamido)-N1-(1-(2-(2-adamantylamino)-2-oxoethyl)-2-oxo-1,2-dihydropyridin-3-yl)-N6-methyl-5-oxohexanediamide] | 1 to 10 | 3 to 5 | > 7.40 |
| CNC(=O)C(=O)CC[C@H](NC(=O)c1oc2ccccc2c1C)C(=O)Nc1cccn(CC23CC4CC(CC(O)(C4)C2)C3)c1=O [II-108, (2S)-N1-(1-((3-hydroxy-1-adamantyl)methyl)-2-oxo-1,2-dihydropyridin-3-yl)-N6-methyl-2-(3-methylbenzofuran-2-carboxamido)-5-oxohexanediamide] | < 1 | 1 to 3 | 6.40 to 7.40 |
| Cc1cn2c(C(=O)N[C@@H](CCC(=O)C(=O)NC(C)(C)C)C(=O)Nc3cccn(CC(=O)NC4C5CC6CC(C5)CC4C6)c3=O)csc2n1 (stereo partly drawn) [II-177, (S)-N1-tert-butyl-N6-(1-(2-(2-adamantylamino)-2-oxoethyl)-2-oxo-1,2-dihydropyridin-3-yl)-5-(6-methylimidazo[2,1-b]thiazole-3-carboxamido)-2-oxohexanediamide] | 1 to 10 | 3 to 5 | 5.60 to 6.40 |
| CNC(=O)C(=O)CC[C@H](NC(=O)c1cncc(C(=O)OC)c1)C(=O)Nc1cccn(CC(=O)NC2C3CC4CC(C3)CC2C4)c1=O (stereo partly drawn) [II-65, (S)-methyl 5-(1-(1-(2-(2-adamantylamino)-2-oxoethyl)-2-oxo-1,2-dihydropyridin-3-ylamino)-6-(methylamino)-1,5,6-trioxohexan-2-ylcarbamoyl)nicotinate] | < 1 | 1 to 3 | 6.40 to 7.40 |
| CNC(=O)C(=O)CC[C@H](NC(=O)c1snnc1C1CC1)C(=O)Nc1cccn(CC(=O)NC23CC(C2)C3)c1=O [II-201, (S)-N1-(1-(2-(bicyclo[1.1.1]pentan-1-ylamino)-2-oxoethyl)-2-oxo-1,2-dihydropyridin-3-yl)-2-(4-cyclopropyl-1,2,3-thiadiazole-5-carboxamido)-N6-methyl-5-oxohexanediamide] | < 1 | < 1 | 6.40 to 7.40 |
| CNC(=O)C(=O)CC[C@H](NC(=O)c1oc2ccccc2c1C)C(=O)Nc1cccn(CC(=O)NC2CC3CCC2CC3)c1=O (stereo partly drawn) [II-98, (2S)-N1-(1-(2-(bicyclo[2.2.2]octan-2-ylamino)-2-oxoethyl)-2-oxo-1,2-dihydropyridin-3-yl)-N6-methyl-2-(3-methylbenzofuran-2-carboxamido)-5-oxohexanediamide] | 1 to 10 | 1 to 3 | 6.40 to 7.40 |
| CNC(=O)C(=O)CC[C@H](NC(=O)c1csc(Cl)n1)C(=O)Nc1cccn(CC(=O)NC2C3CC4CC(C3)CC2C4)c1=O (stereo partly drawn) [II-36, (S)-2-(2-chlorothiazole-4-carboxamido)-N1-(1-(2-(2-adamantylamino)-2-oxoethyl)-2-oxo-1,2-dihydropyridin-3-yl)-N6-methyl-5-oxohexanediamide] | 1 to 10 | 1 to 3 | 6.40 to 7.40 |
